# Experimental data from US11986446B2, “Method of administration of gamma hydroxybutyrate with monocarboxylate transporters” (priority 2013, dated 2024).
# Like-named read-outs stand apart in the source and are kept apart here.
# Key:
# healthy male subjects = type: in vivo, human
# [1] = Ibuprofen combined with Xyrem, pharmacokinetics of GHB
# [2] = healthy volunteers; 12.5, 25, and 50 mg/kg; cited from earlier work
# [3] = alcohol dependent patients, oral administration; cited from earlier work
# [4] = Phase 1 crossover study of Xyrem with and without divalproex sodium, pharmacokinetics of GHB; type: in vivo, human
# From the text: This study is designed to compare the pharmacokinetic (PK) and pharmacodynamic (PD) endpoints of Xyrem® with and without co-administration of divalproex sodium extended-release tablets. The crossover design allows within-subject comparisons of the PK and PD of Xyrem® dosed alone and in combination with divalproex sodium extended-release tablets. PD parameters include the following: Cognitive Drug Research (CDR) System tasks: Karolinska Sleepiness Scale (KSS), Simple Reaction Time (SRT), Digit Vigilance (DV), Choice Reaction Time (CRT), Tracking and Numeric Working Memory (NWM).
# This was a Phase 1, randomized, double-blind, placebo-controlled, five-period, crossover study in healthy male subjects. The study was conducted in approximately 24 healthy subjects to ensure completion of 16 subjects. Following Screening and Baseline procedures, eligible subjects were randomized to receive Xyrem® and Xyrem® placebo in a crossover fashion in Periods 1 and 2; were dosed with divalproex sodium extended-release tablets for 10 consecutive days in Period 3; and while continuing to take divalproex sodium extended-release tablets, were randomized to receive Xyrem® and Xyrem® placebo in a crossover fashion in Periods 4 and 5 (Table 1).
# Subjects were randomized to receive two 3 g doses of Xyrem® or Xyrem® placebo 4 hours apart in a crossover fashion at approximately 9 AM (first dose) and 1 PM (second dose) on Days 1 and 3. PK and PD parameters were evaluated during the 24 hours postdose.
# Blood samples (4 mL) for sodium oxybate concentrations were collected at predose and at specified time-points up to 12 hours after the first dose of Xyrem® or Xyrem® placebo on Days 1 and 3. A PD Battery including the Karolinska Sleepiness Scale, Simple Reaction Time task, Digit Vigilance task, Choice Reaction Time task, Tracking task, and Numeric Working Memory task was administered at planned timepoints up to X hours after first dose (X hours after second dose), and safety were monitored at specified timepoints on Days 1 and 3 as well as throughout the periods.
# All subjects received divalproex sodium extended-release tablets 1250 mg at approximately 8 AM on Days 5 through 14. Blood samples (4 mL) for valproic acid concentrations were collected before the divalproex sodium dose (to determine trough concentration for assessment of steady state) on Days 13 and 14. Safety was monitored at specified timepoints as well as throughout the period.
# Subjects continued taking 1250 mg divalproex sodium extended-release tablets at approximately 8 AM on Days 15 through 18. Subjects were also randomized to receive two 3 g doses of Xyrem® or Xyrem® placebo in a crossover fashion at approximately 9 am (first dose) and 1 pm (second dose) on Days 15 and 18. The first dose of Xyrem® or Xyrem® placebo was taken approximately 1 hour after dosing with divalproex sodium extended-release tablets, and the second dose of Xyrem® or Xyrem® placebo was taken 4 hours after the first Xyrem®/Xyrem® placebo dose.
# Blood samples (4 mL) to measure plasma sodium oxybate concentrations were collected at pre Xyrem®/Xyrem® placebo dose and at specified timepoints after the first Xyrem® or Xyrem® placebo dose on Days 15 and 18. Blood samples (4 mL) to measure plasma valproic acid concentrations were collected pre divalproex sodium dose and at specified timepoints after the dose of divalproex sodium extended-release tablets on Day 15 and 18. […]
# healthy adults = assay: Ibuprofen combined with Xyrem, PD (KSS and CDR System tasks); type: in vivo, human
# Description: The effects of Ibuprofen were evaluated when combined with Xyrem® in a manner similar to the above. […] However, it was observed that renal excretion of Xyrem® doubled upon concomitant administration of Ibuprofen and Xyrem®.
# [5] = GHB and divalproate concomitantly administered, statistically significant
# [6] = GHB co-administered with valproate, attributed to GHB dehydrogenase inhibition
compound,measurement,setting,value
"O=C(O)Cc1ccccc1Nc1c(Cl)cccc1Cl [diclofenac, 2-(2,6-dichloranilino) phenylacetic acid]","effect of diclofenac on the effects of Xyrem on Power of Attention, simple and choice reaction time","healthy subjects; co-dosed with Xyrem, during the hour after the first dose of Xyrem",significantly reduced the effects of the compound
same,effect on sleepiness or cognitive function,healthy subjects; diclofenac alone (50 mg qid + Xyrem placebo),no effect on sleepiness or cognitive function
same,interaction on feelings of sleepiness,healthy subjects; diclofenac co-dosed with Xyrem,no interaction
same,protective effect on subjects ratings of alertness,healthy subjects; diclofenac co-dosed with Xyrem,not seen
same,impairments (interaction) over the hour following the first dose of Xyrem,healthy subjects; diclofenac co-dosed with Xyrem vs Xyrem alone,impairments being notably smaller
same,greater cognitive impairment or sleepiness on any measure,healthy subjects; in vivo,no evidence on any measure of greater cognitive impairment or sleepiness
"CCCC(CCC)C(=O)O [Divalproex sodium, 2-propylvaleric acid]",effects on cognitive function or sleepiness,healthy male subjects; in vivo,no consistent or notable effects on cognitive function or sleepiness
"O=C(O)CCCO [Xyrem®, sodium oxybate]","plasma levels, lower","[1]; GHB concomitantly administered with ibuprofen, statistically significant",~5%
same,renal excretion of GHB,[1]; concomitant administration of ibuprofen,doubled
same,"oral absorption and elimination processes, dose dependency",[2],capacity-limited though the degree of dose dependency was moderate
same,absorption into and elimination from the systemic circulation,[3],fast processes
same,unchanged drug recovered in the urine,[3],Virtually no unchanged drug could be recovered in the urine
same,"renal clearance, increased",[4]; [5],30%
same,"systemic exposure (plasma AUC), increased",[4]; [5],26%
same,"AUC, increase",[4]; [6],about 15%
same,"Cmax, increase",[4]; [6],about 15%
same,"renal excretion of GHB, increase",[4]; upon co-administration of valproate,30%
same,PD effects,healthy subjects; GHB and diclofenac concomitantly administered,significantly reduced
same,"Digit Vigilance Accuracy, change from baseline","healthy subjects; Xyrem co-dosed with diclofenac vs Xyrem alone, at 1 and 2.5 h",significantly less impairment than Xyrem® alone
same,"Power of Attention, change from baseline","healthy subjects; Xyrem co-dosed with diclofenac vs Xyrem alone, at 1 and 4.5 h",narrowly missed significance
same,"Power of Attention, change from baseline","healthy subjects; Xyrem co-dosed with diclofenac vs Xyrem alone, at 0.5 h",significantly less impairment than Xyrem® alone
same,"Power of Attention, change from baseline","healthy subjects; Xyrem co-dosed with diclofenac vs diclofenac alone, 6.5 h and 8 h",impairments at two timepoints compared to diclofenac alone which at 6.5 h was significant and a trend at 8 h
same,"Choice Reaction Time Mean, impairments",healthy subjects; in vivo,significantly smaller than with Xyrem® alone
same,"Digit Vigilance Mean Reaction Time, change from baseline",healthy subjects; in vivo,significantly less impairment than Xyrem® alone
same,PD effects,healthy male subjects; GHB and divalproate concomitantly administered,more pronounced effects with concomitant administration
same,"sleepiness, attention, working memory and tracking task performance","healthy male subjects; Xyrem alone, two 3 g doses, healthy volunteers","induces sleepiness and produces impairments to attention, working memory and performance on a tracking task"
same,"Tracking Distance from Target, change from baseline","healthy male subjects; Xyrem and divalproex sodium together (A+C) vs Xyrem alone (A), at 4 and 8 hours",statistically significant difference by a slightly delayed recovery for the combination
same,"Numeric Working Memory Sensitivity Index, change from baseline","healthy male subjects; Xyrem and divalproex sodium together (A+C) vs Xyrem alone (A), at 4.5 through 8 hours",showed a difference
same,"Continuity of Attention, change from baseline","healthy male subjects; Xyrem and divalproex sodium together (A+C) vs Xyrem alone (A), at 4 hours and 8 hours",slightly delayed recovery for the combination
same,"Digit Vigilance Accuracy, change from baseline","healthy male subjects; Xyrem and divalproex sodium together vs Xyrem alone, at 2.5 and 4 hours",statistically reliably different greater impairment to Xyrem® alone
same,impairments over time,healthy male subjects; Xyrem dosed with divalproex sodium vs divalproex sodium alone (compared with Xyrem vs its placebo),more consistent statistically significant impairments over time were seen with the combination
same,impairments to cognitive function and sleepiness,healthy male subjects; co-administration of Xyrem and divalproex vs Xyrem alone,greater impairments to cognitive function and sleepiness than were seen with Xyrem® alone
same,"Numeric Working Memory Mean Reaction Time, change from baseline",healthy male subjects; in vivo,"statistically significant differences at 2.5, 5 and 8 hours when the combination produced greater impairment"
same,"Simple Reaction Time Mean, change from baseline",healthy male subjects; in vivo,statistically reliably greater impairments than Xyrem® alone
"CC(C)Cc1ccc(C(C)C(=O)O)cc1 (centres unmarked) [Ibuprofen, iso-butyl-propanoic-phenolic acid]","Karolinska Sleepiness Scale, Simple Reaction Time, Digit Vigilance, Choice Reaction Time, Tracking and Numeric Working Memory",healthy adults,No differences were seen
